# Data reported in patent publication US7714134B2, “Compounds and use of tetrahydropyridothiophenes” (4SC AG, priority 2004, dated 2010).
# Experiments:
# [1] = system: RKO colon adenocarcinoma cells (RKOp27) arrested by expression of ectopic p27Kip1; assay: Alamar Blue cell viability assay, cell cycle specific mode of action, RKO p27 induced (arrested by Ponasterone A-induced p27Kip1); format: cell-based; settings: Homo sapiens, RKOp27, 72 h, cells arrested by p27Kip1 induced with 10 μM Ponasterone A, 72 hours incubation
# Description: To determine the cell cycle specific mode of action, subdlones of RKO colon adenocarcinoma cells (RKOp27 or RKOp21 as described by Schmidt et al. in Oncogene 19, 2423-2429; 2000) are seeded into 96 well flat bottom plates at a density of 16000 cells per well in a volume of 50 μl per well in DMEM growth medium with 10% FCS containing 10 μM Ponasterone A. 24 hours after seeding the 50 μl each of the compound dilutions in DMEM medium are added into each well of the 96 Well plate. Each compound dilution is tested as quadruplicates. Wells containing untreated control cells are filled with 50 μl DMEM medium containing 1% DMSO. The cells are then incubated with the substances for 72 hours at 37° C. in a humidified atmosphere containing 5% carbon dioxide. To determine the viability of the cells, 10 μl of an Alamar Blue solution (Biosource) are added and the fluorescence was measured at an extinction of 544 nm and an emission of 590 nm. For the calculation of the cell viability the emission value from untreated cells is set as 100% viability and the emission rates of treated cells are set in relation to the values of untreated cells. Viabilities are expressed as % values. Viability is compared of proliferating cells grown in the absence of the inducer Ponasterone A, versus viability of cells arrested by the expression of ectopic p27Kip1 induced by Ponasterone A. The data of this experimental setting are summarized in table A (2nd column).
# [2] = system: RKO (RKOp27) human colon adenocarcinoma cells; assay: Alamar Blue cell viability assay, anti-proliferative/cytotoxic activity, RKO p27 uninduced; format: cell-based; settings: RKOp27, 72 h, proliferating cells, absence of the inducer Ponasterone A, 72 hours incubation
# Description: The anti-proliferative/cytotoxic activity of the compounds described herein, can be tested on subdlones of RKO (RKOp27) human colon adenocarcinoma cells (Schmidt et al., Oncogene 19, 2423-2429; 2000) using the Alamar Blue cell viability assay (described in O'Brien et al. Eur J Biochem 267, 5421-5426, 2000). The compounds are dissolved as 20 mM solutions in dimethylsulfoxide (DMSO) and subsequently diluted in semi-logarithmic steps. DMSO dilutions are further diluted 1:100 into Dulbecco's modified Eagle's medium (DMEM) containing 10% fetal calf serum to a final concentration twice as much as the final concentration in the test. RKO subclones are seeded into 96 well flat bottom plates at a density of 4000 cells per well in a volume of 50 µl per well. 24 hours after seeding the 50 μl each of the compound dilutions in DMEM medium are added into each well of the 96 Well plate. Each compound dilution is tested as quadruplicates. Wells containing untreated control cells are filled with 50 μl DMEM medium containing 1% DMSO. The cells are then incubated with the substances for 72 hours at 37° C. in a humidified atmosphere containing 5% carbon dioxide. To determine the viability of the cells, 10 μl of an Alamar Blue solution (Biosource) are added and the fluorescence is measured at an extinction of 544 nm and an emission of 590 nm. For the calculation of the cell viability the emission value from untreated cells is set as 100% viability and the emission rates of treated cells are set in relation to the values of untreated cells. Viabilities are expressed as % values.
# The corresponding IC50 values of the compounds for anti-proliferative/cytotoxic activity are determined from the concentration-effect curves.
# Representative IC50 values for anti-proliferation/cytotoxicity determined for the compounds mentioned and numbered as Examples in the examples above follow from the following table A (1st column), in which the numbers of the compound correspond to the numbers of the examples. Any or all of the compounds according to the present invention which are listed in the Table A, as well as their salts, are to be mentioned as a particular interesting subject of the present invention.
Structure (SMILES),IC50 [1] [µM],IC50 [2] [µM]
"CC(C)(C)OC(=O)N1CCc2c(sc(NC(=O)c3ccccc3)c2C#N)C1 [Compound 1, N-(6-tert.-Butyloxycarbonyl-3-cyano-4,5,6,7-tetrahydro-thieno[2,3-c]pyridin-2-yl)-benzamide]",> 100,≤ 2
"COc1cccc(C(=O)Nc2sc3c(c2C#N)CCN(C(=O)OC(C)(C)C)C3)c1 [Compound 3, N-(6-tert.-Butyloxycarbonyl-3-cyano-4,5,6,7-tetrahvdro-thieno[2,3-c]pyridin-2-yl)-3-methoxybenzamide]",> 100,≤ 2
CCCC(=O)N1CCc2c(sc(NC(=O)c3ccccc3)c2C#N)C1 [Compound 5],80,≤ 2
CCCCCCC(=O)N1CCc2c(sc(NC(=O)c3ccccc3)c2C#N)C1 [Compound 6],> 100,≤ 2
"COCCC(=O)N1CCc2c(sc(NC(=O)c3ccccc3)c2C#N)C1 [Compound 7, N-(3-Cyano-7-methoxyethylcarbonyl-4,5,6,7-tetrahydro-thien[2,3-c]pyridin-2-yl)-benzamide]",> 100,≤ 2
N#Cc1c(NC(=O)c2ccccc2)sc2c1CCN(C(=O)CCC(N)=O)C2 [Compound 8],> 100,≤ 2
"CCOC(=O)N1CCc2c(sc(NC(=O)c3cccc(OC)c3)c2C#N)C1 [Compound 12, N-(6-Ethoxycarbonyl-3-cyano-4,5,6,7-tetrahydro-thieno[2,3-c]pyridin-2-yl)-3-methoxybenzamide]",> 100,≤ 2
CCCCCOC(=O)N1CCc2c(sc(NC(=O)c3ccccc3)c2C#N)C1 [Compound 14],> 100,≤ 2
Cc1ncsc1CCOC(=O)N1CCc2c(sc(NC(=O)c3ccccc3)c2C#N)C1 [Compound 17],> 100,≤ 2
"CCOC(=O)N1CCc2c(sc(NC(=O)c3ccccc3)c2C#N)C1 [Compound 18, N-(6-Ethoxycarbonyl-3-cyano-4,5,6,7-tetrahydro-thieno[2,3-c]pyridin-2-yl)-benzamide]",> 100,≤ 2
"CCOC(=O)N1CCc2c(sc(NC(=O)c3cc(OC)cc(OC)c3)c2C#N)C1 [Compound 19, N-(6-Ethoxycarbonyl-3-cyano-4,5,6,7-tetrahydro-thieno[2,3-c]pyridin-2-yl)-3,5-dimethoxybenzamide]",> 100,≤ 2
"CC(=O)N1CCc2c(sc(NC(=O)c3ccccc3)c2C#N)C1 [Compound 20, N-(6-Acetyl-3-cyano-4,5,6,7-tetrahydro-thieno[2,3-c]pyridin-2-yl)-benzamide]",> 100,3
"COC(=O)CCC(=O)N1CCc2c(sc(NC(=O)c3ccccc3)c2C#N)C1 [Compound 22, 4-{3-Cyano-2-[(1-phenyl-methanoyl)-amino]-4,7-dihydro-5H-thieno[2,3-c]pyridin-6-yl}-4-oxo-butyric acid methyl ester]",> 100,≤ 2
"COc1cccc(C(=O)Nc2sc3c(c2C#N)CCN(C(C)=O)C3)c1 [Compound 24, N-(6-Acetyl-3-cyano-4,5,6,7-tetrahydro-thieno[2,3-c]pyridin-2-yl)-3-methoxy-benzamide]",> 100,≤ 2
"CCCC(=O)N1CCc2c(sc(NC(=O)c3cccc(OC)c3)c2C#N)C1 [Compound 25, N-(6-Butyryl-3-cyano-4,5,6,7-tetrahydro-thieno[2,3-c]pyridin-2-yl)-3-methoxy-benzamide]",> 100,≤ 2
"COc1cc(OC)cc(C(=O)Nc2sc3c(c2C#N)CCN(C(C)=O)C3)c1 [Compound 26, N-(6-Acetyl-3-cyano-4,5,6,7-tetrahydro-thieno[2,3-c]pyridin-2-yl)-3,5-dimethoxy-benzamide]",> 100,≤ 2
"CC(=O)CCC(=O)N1CCc2c(sc(NC(=O)c3ccccc3)c2C#N)C1 [Compound 27, N-[3-Cyano-6-(4-oxo-pentanoyl)-4,5,6,7-tetrahydro-thieno[2,3-c]pyridin-2-yl]-benzamide]",> 100,≤ 2
"N#Cc1c(NC(=O)c2ccccc2)sc2c1CCN(C(=O)CCCc1cccs1)C2 [Compound 28, N-[3-Cyano6-(4-thiophen-2-yl-butanoyl)-4,5,6,7-tetrahydro-thieno[2,3-c]pryridin-2-yl]-benzamide]",> 100,≤ 2
"CCSC(=O)N1CCc2c(sc(NC(=O)c3ccccc3)c2C#N)C1 [Compound 29, N-(3-Cyano-7-(ethylthiocarbonyl)-4,5,6,7-tetrahvdro-thieno[2,3-c]pyridin-2-yl)-benzamide]",> 100,≤ 2
"N#Cc1c(NC(=O)c2ccccc2)sc2c1CCN(C(=O)CCc1c[nH]c3ccccc13)C2 [Compound 30, N-[3-Cyano-6-(3-1H-indol-3-yl-propanoyl)-4,5,6,7-tetrahydro-thieno[2,3-c]pyridin-2-yl]-benzamide]",> 60,≤ 3
"CCOC(=O)CC(=O)N1CCc2c(sc(NC(=O)c3ccccc3)c2C#N)C1 [Compound 31, 3-{3-Cyano-2-[(1-phenyl-methanoyl)-amino]-4,7-dihydro-5H-thieno[2,3-c]pyridin-6-yl}-3-oxo-propionic acid ethyl ester]",> 60,≤ 3
"COCC(=O)N1CCc2c(sc(NC(=O)c3ccccc3)c2C#N)C1 [Compound 32, N-[3-Cyano-6-(2-methoxy-ethanoyl)-4,6,7-tetrahydro-thieno[2,3-c]pyridin-2-yl]-benzamide]",> 60,≤ 3
"N#Cc1c(NC(=O)c2ccccc2)sc2c1CCN(C(=O)CCc1nccs1)C2 [Compound 33, N-[3-Cyano-6-(3thiazol-2-yl-propanoyl)-4,5,6,7-tetrahydro-thieno[2,3-c]pyridin-2-yl]-benzamide]",> 60,≤ 3
"N#Cc1c(NC(=O)c2ccccc2)sc2c1CCN(C(=O)CCn1cnnc1)C2 [Compound 34, N-[3-Cyano-6-(3-[1,2,4]triazol-4-yl-propanoyl)-4,5,6,7-tetrahvdro-thieno[2,3-c]pyridin-2-yl]-benzamide]",> 60,≤ 3
"N#Cc1c(NC(=O)c2ccccc2)sc2c1CCN(C(=O)Cc1cccnc1)C2 [Compound 35, N-[3-Cyano-6-(2-pyridin-3-yl-ethanoyl)-4,5,6,7-tetrahydro-thieon[2,3-c]pyridin-2-yl]-benzamide]",> 60,≤ 3
"N#Cc1c(NC(=O)c2ccccc2)sc2c1CCN(C(=O)Cc1c[nH]c3ccccc13)C2 [Compound 36, N-[3-Cyano-6-(2-1H-indol-3-yl-ethanoyl)-4,5,6,7-tetrahydro-thieno[2,3-c]pyridin-2-yl]-benzamide]",> 60,≤ 3
"N#Cc1c(NC(=O)c2ccccc2)sc2c1CCN(C(=O)CCCc1c[nH]c3ccccc13)C2 [Compound 37, N-[3-Cyano-6-(4-1H-indol-3-yl-butanoyl)-4,5,6,7-tetrahydro-thieno[2,3-c]pyridin-2-yl]-benzamide]",> 60,≤ 3
"COC(=O)CCCC(=O)N1CCc2c(sc(NC(=O)c3ccccc3)c2C#N)C1 [Compound 38, 5-{3-Cyano-2-[(1-phenyl-methanoyl)-amino]-4,7-dihydro-5H-thieno[2,3-c]pyridin-6-yl}-5-oxo-pentanoic acid methyl ester]",> 60,≤ 3
"N#Cc1c(NC(=O)c2ccccc2)sc2c1CCN(C(=O)CCNC(=N)N)C2 [Compound 39, N-[3-Cyano6-(3-guanidino-propanoyl)-4,5,6.7-tetrahydro-thieno[2,3-c]pyridin-2-yl]-benzamide]",> 60,≤ 3
COCCOCC(=O)N1CCc2c(sc(NC(=O)c3ccccc3)c2C#N)C1 [Compound 40],> 60,≤ 3
